Test results as given in article PMC11772392, “Host Plant Odour and Sex Pheromone are Integral to Mate Finding in Codling Moth” (Journal of Chemical Ecology, 2025).

Target: T1, CpomOR3 (Cydia pomonella, UniProt H9A5M3)
T1 construct: gene OR3; full-length ORF cloned in pUASg-HA.attB, expressed in Drosophila melanogaster ab3A olfactory neurons (pOr22a-Gal4ki empty neuron line); with Odorant receptor coreceptor (Drosophila melanogaster, endogenous in the ab3A neuron)
T1 sequence (H9A5M3 1-426): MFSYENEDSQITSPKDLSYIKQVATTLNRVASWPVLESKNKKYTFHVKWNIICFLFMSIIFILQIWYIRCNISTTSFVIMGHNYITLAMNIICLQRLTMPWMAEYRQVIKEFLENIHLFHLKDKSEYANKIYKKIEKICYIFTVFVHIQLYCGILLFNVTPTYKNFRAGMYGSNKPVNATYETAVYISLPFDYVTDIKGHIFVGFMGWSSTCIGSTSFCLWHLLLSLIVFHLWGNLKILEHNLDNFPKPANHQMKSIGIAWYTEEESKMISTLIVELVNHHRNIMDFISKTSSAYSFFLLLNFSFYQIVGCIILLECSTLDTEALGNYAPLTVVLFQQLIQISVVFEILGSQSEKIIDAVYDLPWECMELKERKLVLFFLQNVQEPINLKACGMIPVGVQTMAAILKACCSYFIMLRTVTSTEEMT
T1 sequence (Q9VNB5 1-486 partner): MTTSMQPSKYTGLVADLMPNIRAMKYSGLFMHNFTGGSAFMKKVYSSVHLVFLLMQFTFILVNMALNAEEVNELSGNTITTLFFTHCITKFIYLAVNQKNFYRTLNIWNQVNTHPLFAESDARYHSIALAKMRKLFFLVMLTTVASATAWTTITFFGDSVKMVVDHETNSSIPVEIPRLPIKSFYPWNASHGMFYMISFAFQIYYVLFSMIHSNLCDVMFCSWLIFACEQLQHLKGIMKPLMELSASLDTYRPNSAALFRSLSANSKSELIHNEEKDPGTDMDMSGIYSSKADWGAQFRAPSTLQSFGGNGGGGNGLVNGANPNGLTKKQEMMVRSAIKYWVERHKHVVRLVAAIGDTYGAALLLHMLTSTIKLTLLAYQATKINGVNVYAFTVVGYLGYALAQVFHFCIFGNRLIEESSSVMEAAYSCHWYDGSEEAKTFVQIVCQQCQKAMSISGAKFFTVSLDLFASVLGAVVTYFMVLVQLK
Assay: GC-coupled single sensillum recording (GC-SSR), ab3A neuron
Type: cell-based
Conditions: pear ester eluting from apple fruit headspace on GC, dose not stated, n = 3; activation; synthetic pear ester dose response (1, 10, 25 ng) not given
Source text: GC-coupled single sensillum recording (GC-SSR), ab3A neuron on CpomOR3 | antennal sensilla expressing CpomOR3 began to respond at the retention time of pear ester

- spike frequency response: 12.9 ± 4.1 spikes/s
SMILES: CCCCC/C=C\C=C\C(=O)OCC [pear ester, ethyl (E,Z)-2,4-decadienoate]
